From patent US20040214900A1, “Method of treating strongyloides infections and medicaments therefor” (priority 2003, published 2004) come the findings set out here.

Like-named read-outs stand apart in the source and are kept apart here. Marks after values point to notes of the source that are not given here.

In data set [1] the test system is Strongyloides stercoralis infective larvae. Kind of data set: microbe, parasite or virus in culture. To be noted: for Relative activity (RA), mortality: RA of Compound (1) used as reference; for Lt50 (hours) ±95% Fiducial limits (FL), mortality time: S. stercoralis infective larvae; for mortality at 0.6 % strength: Strongyloides stercoralis, read-out: Larvae killed (mortality). It counts as cell-based. The protocol: (§1) Coproculture of about 30 g of fresh, moistened canine faeces was conducted using granular charcoal (1:1 v:v) in sealed 10 cm diameter Petri dishes. Cultures were maintained at 26° C. under semi-lighted conditions. S. stercoralis filariform larvae typically migrated to the surface of the culture and eventually into water droplets that condensed on the inner surface of the lid. Larvae appearing within 2 days were mostly those accruing from the homogonic cycle and usually occurred in insufficient numbers for bioassay. After five to eight days had elapsed free-living adult worms had effected a 50-fold increase in the population density (heterogonic cycle).
The lethality of the tested compounds was evaluated by incubating larvae obtained as in Example 1 in suspensions containing 0.6% of Compound (1) as the active ingredient (AI).
The mortality of the larvae was assessed by a dye exclusion test such as have been used successfully to indicate viability in parasitic platyhelminths. (See Halton & Arme (1971) Exp. Parasit. 30:54; Robinson & Arme (1985) Ann. Trop. Med. & Parasit. 79:17.) Similar testing was applied to S. stercoralis larvae. In these tests, use of
0.01% v/v eosin in LNSS (ELNSS) in an eosin-exclusion test indicated death of larvae in less than 10 minutes and had no effect on healthy individuals.

Data set [2] shares this test system. Put plainly: Immobilisation of S. stercoralis infective larvae incubated in 0.6% AI suspensions. It counts as cell-based. Particulars: for Relative activity (RA), immobilisation / Larvae immobilized: 0.6% AI; for Relative activity (RA), immobilisation: RA of albendazole used as reference; for It50 (hours) ±95% Fiducial limits (FL), immobilisation time: 0.6% active ingredient, S. stercoralis infective larvae; for Larvae immobilized: within one hour's exposure. How it is done:
as §1
The effectiveness of the tested compounds was evaluated by incubating larvae obtained as in Example 1 in suspensions containing 0.6% of Compound (1) as the active ingredient (AI). Incubation times were 1, 2, 3, 4, 5, 6, 24, 48, 72, and 96 hours. Three (3) replicates were run in each assay, using >>100 larvae per replicate.
The anthelmintic effectiveness of Compound (1) and of three commercial anthelmintics, namely albendazole, thiabendazole, and ivermectin, was evaluated, and the results are summarized in Table 1. Compound (1) immobilized 100% of the larvae within one hour's exposure. This was also true for ivermectin. However, similar concentrations of albendazole and thiabendazole immobilized 50% of the infective larvae only after 73.7 and 78.9 hours, respectively.

One may read the mortality as the percentage killed. On to `CCCCCCCCC/C=C/C=O` [Compound (1), E-2-dodecenal], for which, in data set [1] (0.6% AI), the “Relative activity (RA), mortality” value is 1.00* and the “Lt50 (hours) ±95% Fiducial limits (FL), mortality time” value (shortened to “Lt50 (hours) ±95% Fiducial limits”) was 2.2 h. Besides, in data set [1] (0.6% AI, listed as Compound(1)), the “Lt50 (hours) ±95% Fiducial limits” value is listed as 2.2 (1.2-3.3) hours. Besides, the “Fold increase in lethal activity over albendazole” value in data set [1] (Lt50 basis, 0.6% AI, versus albendazole) is given as 66.1 fold. For the same molecule, the “Fold increase in lethal activity over ivermectin” value in data set [1] (Lt50 basis, 0.6% AI, versus ivermectin) was determined as 7.1 fold. For the same molecule, the “Fold increase in lethal activity over thiabendazole” value in data set [1] (Lt50 basis, 0.6% AI, versus thiabendazole) was determined as 81.3 fold. In data set [1] (6 h, after six hours, 0.6% AI), the mortality at 0.6 % strength is 90.8%. For the same molecule, in data set [2], the “Relative activity (RA), immobilisation” value was above 1.00; the “It50 (hours) ±95% Fiducial limits (FL), immobilisation time” value (shortened to “It50 (hours) ±95% Fiducial limits (FL)”) was <1* hours; the Larvae immobilized was found to be 100%.

ivermectin: in data set [1] (0.6% AI), the “Relative activity (RA), mortality” value was 0.14 and the “Lt50 (hours) ±95% Fiducial limits” value is listed as 15.7 (12.5-18.1) hours. Further, the “Lt50 (hours) ±95% Fiducial limits” value in data set [1] (0.6% AI, listed as ivermectin) came to 15.7 h. For the same molecule, in data set [1] (after 24 hours, 0.6% AI), the “Larvae killed (mortality)” value is recorded as 89.0%. Moreover, in data set [2], the “Relative activity (RA), immobilisation” value was above 1.00; the “It50 (hours) ±95% Fiducial limits (FL)” value was <1* hours; the Larvae immobilized worked out at 100%.

With `CCCSc1ccc2nc(NC(=O)OC)[nH]c2c1` [Albendazole, albendazole], in data set [1] (0.6% AI), the “Relative activity (RA), mortality” value was 0.02 and the “Lt50 (hours) ±95% Fiducial limits” value amounted to 145.3 h. In addition, in data set [1] (120 h), the mortality at 0.6 % strength is 37.4%. Besides, in data set [2], the “Relative activity (RA), immobilisation” value is given as 1.00 and the “It50 (hours) ±95% Fiducial limits (FL)” value is recorded as 73.7 (60.4-87.0) hours. The “It50 (hours) ±95% Fiducial limits (FL)” value in data set [2] (listed as albendazole) turned out to be 73.7 h.

Consider `c1ccc2[nH]c(-c3cscn3)nc2c1` [Thiabendazole], for which, in data set [1] (0.6% AI), the “Relative activity (RA), mortality” value worked out at 0.01 and the “Lt50 (hours) ±95% Fiducial limits” value is 178.9 h. Besides, the mortality at 0.6 % strength in data set [1] (120 h) turned out to be 14.1%. In addition, in data set [2], the “Relative activity (RA), immobilisation” value turned out to be 0.93 and the “It50 (hours) ±95% Fiducial limits (FL)” value is on record as 78.9 (65.5-92.8) hours. Also, in data set [2] (listed as thiabendazole), the “It50 (hours) ±95% Fiducial limits (FL)” value came out at 78.9 h.
